Assay results: patent US20210221784A1, “COMPOUNDS AND COMPOSITIONS FOR THE TREATMENT OF PAIN” (Université de Strasbourg, priority 2018, published 2021)

Legend:
hNPFFR2 = target: T1, hNPFFR2 (Homo sapiens, UniProt Q9Y5X5); test: Radioligand binding competition, membranes from CHO cells expressing hNPFFR2; conditions: 0.015 nM [D-Tyr1[125I], N-MePhe3]-NPFF, 1 hr at 25° C., read-out: NPFF2-R Ki
T1 construct: expressed in transfected cells; membranes
In short: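 CHO membranes (5–10 μg protein) stably expressing hNPFFR1 or hNPFFR2 incubated 1 h at 25 °C with 0.015 nM [D-Tyr1[125I], N-MePhe3]-NPFF in HEPES pH 7.4 with Ca2+, Mg2+, 0.1% BSA. Non-specific binding defined with 10 μM RFRP-3; bound radioactivity counted after GF/B filtration.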

hNPFF1R = target: T2, hNPFF1R (Homo sapiens, UniProt Q9GZQ6); test: Glo Sensor cAMP assay in HEK-293 expressing hNPFF1R; assay type: cell-based
T2 construct: expressed in transfected cells
T2 sequence (Q9GZQ6 whole entry): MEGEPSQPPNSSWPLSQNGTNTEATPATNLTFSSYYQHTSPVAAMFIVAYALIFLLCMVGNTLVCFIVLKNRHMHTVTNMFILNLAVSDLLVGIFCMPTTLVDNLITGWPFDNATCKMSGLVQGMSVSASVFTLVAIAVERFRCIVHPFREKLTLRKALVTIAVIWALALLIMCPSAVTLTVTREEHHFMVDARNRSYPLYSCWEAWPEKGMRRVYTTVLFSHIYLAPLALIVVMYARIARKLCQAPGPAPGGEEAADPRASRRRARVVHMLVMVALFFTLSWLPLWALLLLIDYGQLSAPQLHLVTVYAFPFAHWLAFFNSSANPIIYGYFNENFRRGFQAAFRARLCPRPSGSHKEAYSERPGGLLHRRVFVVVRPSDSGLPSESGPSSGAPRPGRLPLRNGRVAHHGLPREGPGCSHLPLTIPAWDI
Description: The functional characterization of the selected compounds was performed by Glo Sensor cAMP kinetic assay, a validated approach for measuring Gαi/s activation by GPCRs (DiRaddo et al., 2014; Gilissen et al., 2015). HEK-Glo cells expressing either NPFF1 or NPFF2 receptors were suspended (10^6 cells per mF) in physiological Hepes buffer (10 mM HEPES, 0.4 mM NaH2PO4, 137.5 mM NaCl, 1.25 mM MgCl2, 1.25 mM CaCl2, 6 mM KCl, 10 mM glucose and 1 mg/mF bovine serum albumin, pH 7.4) supplemented with 1 mM D-Fuciferine. After equilibration for 2 h at 25° C., luminescence levels were recorded in real time in 96-well plates using a Flexstation^R 3 (Molecular Devices, Sunnyvale Calif., USA). Non-specific effect of the different compounds was evaluated in HEK-Glo cells without any recombinant human RF-amide receptors. To test the agonist activity on NPFF1R and NPFF2R, compounds were injected 15 minutes before addition of forskolin (0.5 μM) and readings were pursued for 90 minutes. To evaluate their antagonist properties, compounds were pre-incubated with cells for 15 minutes before prototypical agonists for NPFF1R (RFRP-3) and NPFF2R (NPFF) receptors. According to their preferential coupling to Gi/o proteins, the stimulation of NPFF1R and NPFF2R by agonists was monitored as a dose-dependent reduction in steady-state luminescence levels, reflecting the inhibition of forskolin-induced cAMP accumulation. Experiments were performed at 25° C. in the presence of 0.5 mM IBMX to prevent the degradation of cAMP by phosphodiesterases.

C57BF6/N male mice = test: Neuropathic pain model (chronic constriction injury), Von Frey test; assay type: in vivo
[1] = Solubility in dosing vehicle; assay type: physicochemical; conditions: Tween 80 (0.5%) or Kolliphor EL (10%)
[2] = tested on: NPFFR1 KO and wild-type littermates; test: Morphine-induced hyperalgesia and tolerance in NPFF1R knockout mice and WT littermates; assay type: in vivo

T1 sequence (Q9Y5X5 whole entry): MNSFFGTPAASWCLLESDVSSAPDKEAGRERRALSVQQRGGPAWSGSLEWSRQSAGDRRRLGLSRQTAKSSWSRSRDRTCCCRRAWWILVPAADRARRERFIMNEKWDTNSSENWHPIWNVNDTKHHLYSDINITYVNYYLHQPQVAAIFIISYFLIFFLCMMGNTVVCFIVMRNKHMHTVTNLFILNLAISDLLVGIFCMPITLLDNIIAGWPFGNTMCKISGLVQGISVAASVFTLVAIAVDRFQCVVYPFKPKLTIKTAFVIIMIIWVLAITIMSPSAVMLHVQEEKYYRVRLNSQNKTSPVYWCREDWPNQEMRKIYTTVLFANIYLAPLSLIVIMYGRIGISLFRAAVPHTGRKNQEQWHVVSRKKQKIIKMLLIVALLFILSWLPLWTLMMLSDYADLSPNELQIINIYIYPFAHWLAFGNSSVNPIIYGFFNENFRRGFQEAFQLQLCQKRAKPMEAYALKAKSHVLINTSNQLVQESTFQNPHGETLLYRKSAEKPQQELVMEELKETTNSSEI

Question: Which Ki (hNPFFR2) does the source give for `Nc1ccc(-c2cccc(Cl)c2Cl)c(N)n1` [Compound 1j, 3-(2,3-dichlorophenyl)pyridine-2,6-diamine] here?
Answer: The Ki was 2000 nM.

Question: What about the “antagonist activity: effect on dose response curve of NPVF (RFRP-3), forskolin-stimulated cAMP” value (hNPFF1R; HEK-293 cells expressing hNPFF1R, FIG. 7) of the same compound?
Answer: Its value is “efficiently shifted to the right the dose response curve of NPVF”.

Question: And the “effect of compound tested alone (agonist activity)” value (hNPFF1R; cells expressing hNPFF1R, forskolin 0.5 μM)?
Answer: Its value is “had no effect”.

Question: What about the “mechanical allodynia after CCI (allodynia index d11-d21), drug alone” value (C57BF6/N male mice; morphine 3 mg/kg sc. alone or 1j 5 mg/kg p.o. alone, FIG. 4B) of the same compound?
Answer: The value was “significantly attenuated the mechanical allodynia”.

Question: And the “mechanical allodynia after CCI (allodynia index d11-d21), pre-treatment before morphine” value (C57BF6/N male mice; mouse, in vivo)?
Answer: The value was “significantly enhanced morphine analgesia effect on neuropathic pain”.

Question: What about the “solubility in vehicle (Kolliphor EL vs Tween 80)” value [1] of the same compound?
Answer: Its value is “better solubility in Kolliphor EL”.

Question: What about the “morphine-induced hyperalgesia in NPFF1R KO mice” value ([2]; NPFF1R KO, 1j 5 mg/kg oral before daily morphine 10 mg/kg s.c., FIG. 5B, C) of the same compound?
Answer: The value was “did not show any significant effect”.

Question: What about the “morphine-induced hyperalgesia in WT mice” value ([2]; WT littermates, 1j 5 mg/kg oral before daily morphine 10 mg/kg s.c., FIG. 5B, C) of the same compound?
Answer: The value was “significantly attenuated this hyperalgesia”.

Question: And the “morphine analgesia at day 8 in WT mice (tolerance)” value ([2]; WT littermates, morphine 5 mg/kg s.c., 1j 5 mg/kg oral, FIG. 5D)?
Answer: Its value is “failed to restore morphine analgesia at day 8”.
